Measured values reported in patent US8980792B2, “Compositions comprising abscisic acid and a fungicidally active compound” (Syngenta Participations AG, priority 2010, dated 2015).

System: Mycosphaerella graminicola (Septoria tritici)
Experiment: Septoria tritici leaf spot on wheat, preventative foliar spray test
Type: in vivo
Excerpt: Mycosphaerella graminicola (Septoria tritici)/Wheat/Preventative (Septoria tritici Leaf Spot on Wheat)
The isopyrazam is formulated as an emulsion concentrate formulation and mixed with water to form a stock solution and ultrasonically agitated in order to achieve homogeneous distribution. Spray solutions are made up from the stock solution by dilution in water/isopropanol (10% isopropanol v/v), with abscisic acid added where needed as a tank mix to the diluted stock solution, and mechanically stirred just before spraying. Foliar application is at 200 L/ha using an application device spraying with a single nozzle (Lechler type) 60 cm above the plants. Typically two-week old wheat plants cv. Riband are sprayed with the spray solution in the spray chamber of the application device. The test plants are inoculated by spraying a spore suspension on them one day after application. After an incubation period of 1 day at typically 22° C./21° C. (day/night) and 95% rh, the inoculated test plants are kept at typically 22° C./21° C. (day/night) and 70% rh in a greenhouse. Percentage efficacy is assessed by direct visual comparison to untreated check plants when an appropriate level of disease appears on the untreated checks (typically 14-19 days after application).

`CC1=CC(=O)CC(C)(C)[C@@]1(O)/C=C/C(C)=C\C(=O)O` [Abscisic acid] was tested. Which “% Disease Control” value (abscisic acid 0.0025 % w/v alone, foliar spray 200 L/ha, wheat) did it give?
The value was 0%.

What about the “% Disease Control” value (abscisic acid 0.0238 % w/v alone, foliar spray 200 L/ha, wheat) of the same molecule?
Its value is 0%.

Which results are given for `CC(C)C1C2CCC1c1c(NC(=O)c3cn(C)nc3C(F)F)cccc12` (stereo not shown) [Isopyrazam]?
% Disease Control (isopyrazam 2.44 mg/ml alone): 3%; % Disease Control (isopyrazam 9.77 mg/ml alone): 10%; % Disease Control (isopyrazam 39.06 mg/ml alone): 50%; % Disease Control (isopyrazam 156.25 mg/ml alone): 67%; % Disease Control (isopyrazam 625.00 mg/ml alone): 80%
